According to patent publication US20250186466A1, “ZLT-007 AND METHODS OF TREATING DIABETIC NEUROPATHY” (IIere Therapeutics LLC, priority 2022, published 2025):

Assays:
[1] = system: subjects with pain associated with diabetic neuropathy; experiment: 12-week clinical study, Daily Pain Numeric Rating Scale (NRS); assay type: in vivo, human
Procedure: (§1) To determine the effect of ZLT-L-007 in subjects with pain associated with diabetic neuropathy, an observational 12-week clinical study to evaluate the efficacy, safety and tolerability of ZLT-L-007 versus Pregabalin (300 Mg/Day) was conducted.
Primary endpoints of the study included: 1. Recording Daily Pain Numeric Rating Scale (NRS) at Baseline, Day 30, Day 60, and Day 90.
Three groups were used to evaluate the effect of ZLT-L-007 in subjects with pain associated with diabetic neuropathy: Group 1 (Pregabalin), Group 2 (ZLT-L-007 pharmaceutical composition+terpene composition), and Group 3 (Pregabalin and ZLT-L-007 pharmaceutical composition+terpene composition). More detailed information regarding each group's treatment is provided below.
Group 3 subjects were already taking pregabalin/Lyrica® at the prescribed dose recommended by their doctor. Subjects then received one capsule by mouth twice daily of the ZLT-L-007 pharmaceutical composition. Participants were also given one capsule by mouth twice daily of a terpene composition that comprised 0.25 mg of myrcene and 0.25 mg of linalool.
Group 3 was administered one capsule by mouth twice daily of the ZLT-L-007 pharmaceutical composition.. Participants were also given one capsule by mouth twice daily of a terpene composition that comprised 0.25 mg of myrcene and 0.25 mg of linalool.

[2] = system: subjects with pain associated with diabetic neuropathy; experiment: 12-week clinical study, pain Visual Analog Scale (VAS); assay type: in vivo, human; details: Day 30, Day 60, Day 90
Procedure: as §1

With `CC(C)C[C@H](CN)CC(=O)O` [Pregabalin] the “NRS Severity, median percent change from baseline” value ([1]; 30-day follow-up, ZLT-L-007 one capsule by mouth twice daily plus terpene capsule) was −33.33%, the “NRS Severity, median percent change from baseline” value ([1]; 60-day follow-up) was −20.00% and the “NRS Severity, median percent change from baseline” value ([1]; 90-day follow-up) was −35.00%. The “NRS Severity, median percent change from baseline, range” value ([1]; all follow-up periods) was −20.00% to −35.00% and the “VAS pain severity, median percent change from baseline, range” value [2] was −33.33% to −35.00%.
